In this assay the test system is Phosphorylation of STAT6 in human A549 cells. Description: Phosphorylated STAT6 (pSTAT6) flow cytometry assay in human A549 cells. It is filed as cell-based. To be noted: read-out: STAT6 IL4 pSTAT6 assay in A549 cells: Average IC50. The text has this:
Example 3. Phosphorylated STAT6 (pSTAT6) Flow Cytometry Assay in Human A549 Cells
Phosphorylation of STAT6 in human A549 cells was quantitatively measured using flow cytometry technology.
For orientation: In flow cytometry, cells or beads pass a laser one at a time.

A value given as a limit tells only on which side of the number the result lay.

By IC50 is commonly meant the point on the concentration scale where inhibition reaches its midpoint. For the compound `CC(=O)N1CCC=C(c2cc(-c3ccccc3N(C)C)c3cc(C(=O)N(C)C)[nH]c3c2F)C1` [Example I-1093], the 50% inhibitory concentration (IC50) is 0.1 to 1 µM. For the compound `COc1ccccc1-c1cc(C2=CCCN(C(=O)CCn3ccnn3)C2)c(F)c2[nH]c(C(=O)N3CC(Oc4cccnc4)C3)cc12` [Example I-992], the IC50 was less than 0.1 µM. For `COc1cccc(N2CCN(C(=O)c3cc4c(-c5ccncc5OC)cc(C5=CCCN(C(=O)CCn6ccnn6)C5)c(F)c4[nH]3)CC2)n1` [Example I-612], the IC50 is less than 0.1 µM. On to `COc1ccccc1-c1cc(C2=CCCN(C(=O)CCn3ccnn3)C2)c(F)c2[nH]c(C(=O)N3CC4CN(c5ncccc5OC)CC4C3)cc12` (stereo not shown) [Example I-1035], for which the IC50 was 0.1 to 1 µM. Take `COc1ccccc1-c1cc(C2=CCCN(C(=O)CCn3ccnn3)C2)c(F)c2[nH]c(C(=O)N3CCN(c4nccc5[nH]ccc45)CC3)cc12` [Example I-966]: the IC50 was less than 0.1 µM. As for `COc1ccccc1-c1cc(C(=O)N(C)C)cc2cc(C3=CCCN(C(=O)CCn4ccnn4)C3)n(CC3CC3)c12` [Example I-899], the IC50 was less than 0.1 µM. Regarding `CCc1nc(C)ccc1-c1cc(C(=O)N2CCN(c3nc(C)c(F)cc3OC)CC2)cc2cc(C3=CCCN(C(=O)CC(=O)O)C3)n(CC3CC3)c12` [Example I-792], the IC50 was less than 0.1 µM. With `COc1ccccc1-c1cc(C2=CCCN(C(=O)CCn3ccnn3)C2)c(F)c2[nH]c(C(=O)N3CCN(c4nccc(-c5ccccc5)n4)CC3)cc12` [Example I-904], the IC50 lay in the range of 0.1 to 1 µM. With `COc1ccncc1-c1cc(C2=CCCN(C(=O)CCn3ccnn3)C2)c(F)c2[nH]c(C(=O)N3CCN(c4ncc(Cl)cc4OC)CC3)cc12` [Example I-458], the IC50 is less than 0.1 µM.

With “(R)-1-(3-(7-fluoro-2-(4-(5-fluoro-3-methoxypyridin-2-yl)piperazine-1-carbonyl)-4-(1-methylpyrrolidin-3-yl)-1H-indol-6-yl)-5,6-dihydropyridin-1(2H)-yl)-3-(1H-1,2,3-triazol-1-yl)propan-1-one [Example I-812]”, the half-inhibitory concentration (IC50) is less than 0.1 µM. In the case of `COc1cc(F)cnc1N1CCN(C(=O)c2cc3c(-c4cnc5c(C)cccc5c4)cc(C4=CCCN(C(=O)CCn5ccnn5)C4)c(F)c3[nH]2)CC1` [Example I-672] it was less than 0.1 µM.

With `CCc1cc(C)ncc1-c1cc(C2=CCCN(C(=O)CCn3ccnn3)C2)c(F)c2[nH]c(C(=O)N3Cc4cnn(C)c4C3)cc12` [Example I-531], the IC50 was less than 0.1 µM. On to `COc1cc(N(C)C)ccc1-c1cc(C2=CCCN(C(=O)CCn3ccnn3)C2)c(F)c2[nH]c(C(=O)N3CCN(c4ncc(Cl)cc4OC)CC3)cc12` [Example I-1039], for which the half-maximal inhibitory concentration (IC50) was less than 0.1 µM. In the case of `COc1cnccc1-c1cc(C2=CCCN(C(=O)CCn3ccnn3)C2)c(F)c2[nH]c(C(=O)N3CCN(c4ncc(Cl)cc4OC)CC3)cc12` [Example I-457] it was less than 0.1 µM; in that of `CCc1cc(C)ncc1-c1cc(C2=CCCN(C(=O)CCn3ccnn3)C2)c(F)c2[nH]c(C(=O)N3CCN(c4ccc(F)cc4OC)CC3)cc12` [Example I-739], less than 0.1 µM.

In the case of `COc1ccccc1N1CCN(C(=O)c2cc3c(-c4cccc(F)c4OC)cc(C4=CCCN(C(=O)CCn5ccnn5)C4)c(F)c3[nH]2)CC1` [Example I-567], the IC50 is less than 0.1 µM. Take `COc1ccccc1-c1cc(C2=CCCN(C(=O)CCn3ccnn3)C2)c(F)c2[nH]c(C(=O)N3CCN(Cc4ccc(Cl)cc4)CC3)cc12` [Example I-868]: the IC50 lay in the range of 0.1 to 1 µM. As to `COCOc1cc(F)ccc1-c1cc(C2=CCCN(C(=O)CCn3ccnn3)C2)c(F)c2[nH]c(C(=O)N3CCN(c4ncc(F)cc4OC)CC3)cc12` [Example I-670], the IC50 is less than 0.1 µM. In the case of `COc1ccccc1-c1cc(C2=CCCN(C(=O)C3Cc4ccccc4CN3C=O)C2)cc2cc(C(=O)N(C)C)oc12` (stereo not shown) [Example I-803, 5-(1-(2-formyl-1,2,3,4-tetrahydroisoquinoline-3-carbonyl)-1,2,5,6-tetrahydropyridin-3-yl)-7-(2-methoxyphenyl)-N,N-dimethylbenzofuran-2-carboxamide] it was 10 to 100 µM; in that of `COc1ccccc1-c1cc(C(=O)N2CCN(c3ncc(F)cc3OC)CC2)cc2cc(C3=CCCN(C(=O)CCn4ccnn4)C3)n(CC3CC3)c12` [Example I-506], 10 to 100 µM.

With `CN(C)C(=O)c1cc2ccc(C3=CCCN(C(=O)C4Cc5ccccc5CN4C=O)C3)cc2[nH]1` (stereo not shown) [Example I-822], the IC50 lay within 0.1 to 1 µM. `CCc1ccc(-c2cc(C(=O)N3CCN(c4ncc(F)cc4OC)CC3)cc3cc(C4=CCCN(C(=O)C5CC5C(=O)O)C4)n(CC4CC4)c23)c(C)n1` (stereo not shown) [Example I-550]: the IC50 is greater than 100 µM. `COc1cc(F)cnc1N1CCN(C(=O)c2cc3c(-c4cccc5c4CC[C@H]5O)cc(C4=CCCN(C(=O)CCn5ccnn5)C4)c(F)c3[nH]2)CC1` [Example I-658]: the IC50 was less than 0.1 µM. Turning to `COc1ccncc1-c1cc(C2=CCCN(C(=O)CCn3ccnn3)C2)c(F)c2[nH]c(C(=O)N3Cc4cnn(C)c4C3)cc12` [Example I-496], the IC50 is greater than 100 µM. On to `COc1ncccc1-c1cc(C2=CCCN(C(=O)CCn3ccnn3)C2)cc2cc(C(=O)N(C)C)oc12` [Example I-1082], for which the IC50 was less than 0.1 µM.

For the compound `COc1ccccc1-c1cc(C2=CCCN(C(=O)CCn3ccnn3)C2)c(F)c2[nH]c(C(=O)N3CCN(Cc4ccncc4)CC3)cc12` [Example I-858], the half-inhibitory concentration (IC50) was less than 0.1 µM.

On to `COc1ccccc1-c1cc(C2=CCCN(C(=O)CCn3ccnn3)C2)c(F)c2[nH]c(C(=O)N3CCN(c4ccnn4C)CC3)cc12` [Example I-1025], for which the IC50 is less than 0.1 µM. Regarding `COc1cccnc1N1CCN(C(=O)c2cc3c(-c4cccnc4OC)cc(C4=CCCN(C(=O)CCn5ccnn5)C4)c(F)c3[nH]2)CC1` [Example I-410], the concentration for half-maximal inhibition (IC50) was greater than 100 µM.

`COc1ccccc1-c1cc(C2=CCCN(C(=O)CCn3ccnn3)C2)c(F)c2[nH]c(C(=O)N3CCN(c4cccc5cncn45)CC3)cc12` [Example I-936]: the IC50 was less than 0.1 µM. In the case of `COc1cc(-c2cc(C3=CCCN(C(=O)CCn4ccnn4)C3)cc3cc(C(=O)N(C)C)oc23)cc(OC)c1OC` [Example I-1088] it was less than 0.1 µM; in that of `CN(C)C(=O)c1cc2cc([C@H]3CCCN(C(=O)CCn4ccnn4)C3)ccc2o1` [Example I-830], 0.1 to 1 µM. In the case of `COc1ccccc1-c1cc(C2=CCCN(C(=O)CCn3ccnn3)C2)c(F)c2[nH]c(C(=O)N3CCc4ncccc43)cc12` [Example I-974] it was less than 0.1 µM. `CN(C)C(=O)c1cc2cc(C3=CCCN(C(=O)CCn4ccnn4)C3)cc(-c3ccc(F)cc3O)c2o1` [Example I-1074]: the IC50 is less than 0.1 µM. Consider `COc1ccncc1-c1cc(C2=CCCN(C(=O)CCn3ccnn3)C2)c(F)c2[nH]c(C(=O)N3CCN(c4nnccc4OC)CC3)cc12` [Example I-467], for which the IC50 is less than 0.1 µM. For `COc1cc(F)cnc1N1CCN(C(=O)c2cc3c(C4=CCC(N5CCOCC5)CC4)cc(C4=CCCN(C(=O)CCn5ccnn5)C4)c(F)c3[nH]2)CC1` (stereo not shown) [Example I-1153], the IC50 was less than 0.1 µM. `CN(C)C(=O)c1cc2cc(C3=CCCN(C(=O)CCc4cccnn4)C3)ccc2o1` [Example I-820]: the concentration for half-maximal inhibition (IC50) is 0.1 to 1 µM. For `COc1ccccc1-c1cc(C2=CCCN(C(=O)CCn3ccnn3)C2)c(F)c2[nH]c(C(=O)N3CCN(c4ccsc4C#N)CC3)cc12` [Example I-776], the IC50 is less than 0.1 µM.

For `COc1c(-c2cc(C3=CCCN(C(=O)CCn4ccnn4)C3)c(F)c3[nH]c(C(=O)N4CCN(C5CC5)CC4)cc23)cnc2ccccc12` [Example I-449], the 50% inhibitory concentration (IC50) is less than 0.1 µM.

As to `COc1cc(F)cnc1N1CCN(C(=O)c2cc3c(-c4cnc5ccccc5c4OC)cc(C4=CCCN(C(=O)CCn5ccnn5)C4)c(F)c3[nH]2)CC1` [Example I-468], the IC50 is less than 0.1 µM. In the case of `COc1ccccc1-c1cc(C2=CCCN(C(=O)CCn3ccnn3)C2)c(F)c2[nH]c(C(=O)N3CCc4ccc(N)cc4C3)cc12` [Example I-1012], the IC50 is less than 0.1 µM. On to `COc1cc(F)cnc1N1CCN(C(=O)c2cc3c(C4=CCN(C(C)=O)CC4)cc(C4=CCCN(C(=O)CCn5ccnn5)C4)c(F)c3[nH]2)CC1` [Example I-657], for which the IC50 is less than 0.1 µM. `COc1cc(C)c(N2CCN(C(=O)c3cc4c(-c5ccccc5OC)cc(C5=CCCN(C(=O)CCn6ccnn6)C5)c(F)c4[nH]3)CC2)c(C)n1` [Example I-958]: the IC50 was 0.1 to 1 µM. Regarding `COc1ccccc1-c1cc(C2=CCCN(C(=O)CCn3ccnn3)C2)c(F)c2[nH]c(C(=O)N3CCN(C)C(c4ccccc4)C3)cc12` (stereo not shown) [Example I-911], the IC50 is 0.1 to 1 µM.

Take `COc1ccccc1-c1cc(C2=CCCN(C(=O)CCn3ccnn3)C2)c(F)c2[nH]c(C(=O)N3CCC4CC43)cc12` (stereo not shown) [Example I-1011]: the IC50 was less than 0.1 µM.

On to `COc1cc(F)cnc1N1CCN(C(=O)c2cc3c(-c4ccncc4C(C)C)cc(C4=CCCN(C(=O)CCn5ccnn5)C4)c(F)c3[nH]2)CC1` [Example I-703], for which the IC50 was 10 to 100 µM.

`COc1ccccc1-c1cc(C2=CCCN(C(=O)CCn3ccnn3)C2)c(F)c2[nH]c(C(=O)N3Cc4ccc(C#N)cc4C3)cc12` [Example I-975]: the IC50 was less than 0.1 µM.

Take `COc1ccccc1-c1cc(C2=CCCN(C(=O)CCn3ccnn3)C2)c(F)c2[nH]c(C(=O)N3CCN(CC4CCCO4)CC3)cc12` (stereo not shown) [Example I-1184]: the IC50 is less than 0.1 µM. Regarding `COc1ccccc1-c1cc(C2=CCCN(C(=O)CCn3ccnn3)C2)c(F)c2[nH]c(C(=O)N3Cc4ncn(C)c4C3)cc12` [Example I-541], the IC50 is less than 0.1 µM.

Regarding `COc1ccccc1-c1cc(C2=CCCN(C(=O)CCn3ccnn3)C2)c(F)c2[nH]c(C(=O)N3CCN(c4ccc(F)c(F)c4F)CC3)cc12` [Example I-769], the IC50 was less than 0.1 µM. For the compound `COc1cccc(N2CCN(C(=O)c3cc4c(-c5ccccc5OC)cc(C5=CCCN(C(=O)CCn6ccnn6)C5)c(F)c4[nH]3)CC2)n1` [Example I-359], the IC50 is less than 0.1 µM.

In the case of `COc1cccnc1N1CCN(C(=O)c2cc3c(-c4cn(C)nc4C)cc(C4=CCCN(C(=O)CCn5ccnn5)C4)c(F)c3[nH]2)CC1` [Example I-574], the half-maximal inhibitory concentration (IC50) is less than 0.1 µM. In the case of `COc1cc(F)cnc1N1CCN(C(=O)c2cc3c(-c4ccc(CN5CCOCC5)cc4)cc(C4=CCCN(C(=O)CCn5ccnn5)C4)c(F)c3[nH]2)CC1` [Example I-1122], the IC50 is less than 0.1 µM.
